Assay results published in the NIST ThermoML archive (doi:10.1021/je0302147).
Numbers after ± are expanded uncertainties.

What was measured:
[1] = 298.15 K, 101.33 kPa, Liquid; for speed of sound: Sing-around technique in a fixed-path interferometer
[2] = refractive index (Na D-line) (dimensionless); conditions: 298.15 K, 101.33 kPa, Liquid

Row | speed of sound [1] [m/s] | mass density [1] [kg/m3] | refractive index ([2]; Standard Abbe refractometry) | SMILES | mass density ([1]; Vibrating tube method) [kg/m3] | refractive index [2]
1 | 1382 ± 4 | 1007 ± 1.6 | 1.5058 ± 0.00069 | CCCCCCCC[n+]1ccn(C)c1.[Cl-] [1-methyl-3-octylimidazolium chloride] | – | –
2 | 1096 ± 2 | – | – | CCOC(C)(C)CC [1,1-dimethylpropyl ethyl ether] | 760.5 | 1.38857

Row | SMILES | speed of sound [1] [m/s] | mass density [1] [kg/m3] | refractive index ([2]; Standard Abbe refractometry) | mass density ([1]; Vibrating tube method) [kg/m3] | refractive index [2]
3 | CCO [ethanol] | 1143 ± 2 | – | – | 785.22 | 1.3592
